Experiments:
human mGlu5a receptor [1] = biological target: T1, human mGlu5a receptor (Homo sapiens, UniProt P41594); experiment: Intracellular Ca2+ mobilization assay (mGlu5 PAM); assay type: cell-based; set-up: expressed in transfected cells; conditions: for Emax: HEK293, maximal response in % of maximal stimulatory effect of saturating L-glutamate, HEK-293 human mGlu5a, read-out: Eff. (%); for EC50: HEK-293 cells stably expressing human mGlu5a, L-glutamate added at EC20, read-out: EC50 (nM) mGlu5PAM
Experimental: A monoclonal HEK-293 cell line stably transfected with a cDNA encoding for the human mGlu5a receptor was generated; for the work with mGlu5 Positive Allosteric Modulators (PAMs), a cell line with low receptor expression levels and low constitutive receptor activity was selected to allow the differentiation of agonistic versus PAM activity. Cells were cultured according to standard protocols (Freshney, 2000) in Dulbecco's Modified Eagle Medium with high glucose supplemented with 1 mM glutamine, 10% (vol/vol) heat-inactivated bovine calf serum, Penicillin/Streptomycin, 50 μg/ml hygromycin and 15 μg/ml blasticidin (all cell culture reagents and antibiotics from Invitrogen, Basel, Switzerland).
About 24 hrs before an experiment, 5×10^4 cells/well were seeded in poly-D-lysine coated, black/clear-bottomed 96-well plates. The cells were loaded with 2.5 μM Fluo-4AM in loading buffer (1×HBSS, 20 mM HEPES) for 1 hr at 37° C. and washed five times with loading buffer. The cells were transferred into a Functional Drug Screening System 7000 (Hamamatsu, Paris, France), and 11 half logarithmic serial dilutions of test compound at 37° C. were added and the cells were incubated for 10-30 min with on-line recording of fluorescence. Following this pre-incubation step, the agonist L-glutamate was added to the cells at a concentration corresponding to EC20 (typically around 80 μM) with on-line recording of fluorescence; in order to account for day-to-day variations in the responsiveness of cells, the EC20 of glutamate was determined immediately ahead of each experiment by recording of a full dose-response curve of glutamate.
Responses were measured as peak increase in fluorescence minus basal (i.e. fluorescence without addition of L-glutamate), normalized to the maximal stimulatory effect obtained with saturating concentrations of L-glutamate. Graphs were plotted with the % maximal stimulatory using XLfit, a curve fitting program that iteratively plots the data using Levenburg Marquardt algorithm. The single site competition analysis equation used was y=A+((B−A)/(1+((x/C)D))), where y is the % maximal stimulatory effect, A is the minimum y, B is the maximum y, C is the EC50, x is the log 10 of the concentration of the competing compound and D is the slope of the curve (the Hill Coefficient). From these curves the EC50 (concentration at which half maximal stimulation was achieved), the Hill coefficient as well as the maximal response in % of the maximal stimulatory effect obtained with saturating concentrations of L-glutamate were calculated.
A depression of the signal observed after addition of the EC20 concentration of L-glutamate was indicative of an inhibitory activity of the test compound.
In the table below are shown the prepared compounds 1-24 with corresponding results (EC50 in nM).

human mGlu5a receptor [2] = biological target: T1, human mGlu5a receptor; experiment: [3H]MPEP binding competition on human mGlu5a receptor membranes; set-up: expressed in transfected cells; host or cells: EBNA cells (transient), membrane homogenates; conditions: [3H]MPEP (2 nM) competition, EBNA cell membranes, 1 h at 4° C.; read-out: Human mGluR5 Ki
Experimental: Examples 18, 20-22 have been tested on human mGluR5 receptor using the following method:
For binding experiments, cDNA encoding human mGlu 5a receptor was transiently transfected into EBNA cells using a procedure described by Schlaeger and Christensen [Cytotechnology 15:1-13 (1998)]. Cell membrane homogenates were stored at −80° C. until the day of assay where upon they were thawed and resuspended and polytronized in 15 mM Tris-HCl, 120 mM NaCl, 100 mM KCl, 25 mM CaCl2, 25 mM MgCl2 binding buffer at pH 7.4 to a final assay concentration of 20 μg protein/well.
Saturation isotherms were determined by addition of twelve [^3H]MPEP concentrations (0.04-100 nM) to these membranes (in a total volume of 200 μl) for 1 h at 4° C. Competition experiments were performed with a fixed concentration of [^3H]MPEP (2 nM) and IC50 values of test compounds evaluated using 11 concentrations (0.3-10,000 nM). Incubations were performed for 1 h at 4° C.
At the end of the incubation, membranes were filtered onto unifilter (96-well white microplate with bonded GF/C filter preincubated 1 h in 0.1% PEI in wash buffer, Packard BioScience, Meriden, Conn.) with a Filtermate 96 harvester (Packard BioScience) and washed 3 times with cold 50 mM Tris-HCl, pH 7.4 buffer. Nonspecific binding was measured in the presence of 10 μM MPEP. The radioactivity on the filter was counted (3 min) on a Packard Top-count microplate scintillation counter with quenching correction after addition of 45 μl of microscint 40 (Canberra Packard S.A., Zürich, Switzerland) and shaking for 20 min.
For binding experiments the Ki values of the compounds tested are given. The Ki value is defined by the following formula: Ki=IC50/[1+L/Kd] in which the IC50 values are those concentrations of the compounds tested which cause 50% inhibition of the competing radioligand ([^3H]MPEP). L is the concentration of radioligand used in the binding experiment and the Kd value of the radioligand is empirically determined for each batch of membranes prepared.

T1 sequence (P41594 21-1180 isoform P41594-2 limits assumed): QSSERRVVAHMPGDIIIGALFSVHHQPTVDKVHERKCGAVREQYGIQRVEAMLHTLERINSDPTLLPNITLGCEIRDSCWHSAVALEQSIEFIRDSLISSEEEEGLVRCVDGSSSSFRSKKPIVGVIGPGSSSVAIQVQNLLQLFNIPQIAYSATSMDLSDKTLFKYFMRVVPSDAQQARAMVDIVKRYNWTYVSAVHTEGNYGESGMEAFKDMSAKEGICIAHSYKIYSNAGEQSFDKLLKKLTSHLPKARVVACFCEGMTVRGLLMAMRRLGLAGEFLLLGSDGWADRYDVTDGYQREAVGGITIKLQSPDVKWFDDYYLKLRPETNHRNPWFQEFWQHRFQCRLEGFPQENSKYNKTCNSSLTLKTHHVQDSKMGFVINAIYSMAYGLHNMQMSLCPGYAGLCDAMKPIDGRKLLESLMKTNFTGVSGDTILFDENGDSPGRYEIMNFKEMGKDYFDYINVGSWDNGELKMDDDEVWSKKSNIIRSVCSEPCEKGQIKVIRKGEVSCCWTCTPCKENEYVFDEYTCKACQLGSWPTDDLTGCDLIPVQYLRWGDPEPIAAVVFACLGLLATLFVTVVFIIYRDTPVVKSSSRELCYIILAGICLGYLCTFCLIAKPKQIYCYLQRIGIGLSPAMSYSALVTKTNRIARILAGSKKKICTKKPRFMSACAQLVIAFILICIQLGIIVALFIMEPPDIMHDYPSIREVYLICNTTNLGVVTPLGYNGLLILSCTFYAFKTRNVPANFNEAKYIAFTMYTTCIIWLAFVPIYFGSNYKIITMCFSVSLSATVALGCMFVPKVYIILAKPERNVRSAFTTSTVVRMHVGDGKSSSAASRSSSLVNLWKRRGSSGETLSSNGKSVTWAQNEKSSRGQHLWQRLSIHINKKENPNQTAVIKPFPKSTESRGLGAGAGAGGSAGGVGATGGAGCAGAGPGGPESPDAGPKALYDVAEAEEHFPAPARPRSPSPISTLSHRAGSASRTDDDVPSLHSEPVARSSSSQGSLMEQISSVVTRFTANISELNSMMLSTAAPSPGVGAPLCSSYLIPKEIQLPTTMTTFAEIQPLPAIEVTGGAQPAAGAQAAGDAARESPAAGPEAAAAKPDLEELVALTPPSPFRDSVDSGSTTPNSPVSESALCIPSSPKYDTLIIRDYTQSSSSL

Row | Structure (SMILES) | Emax (human mGlu5a receptor [1]) | EC50 (human mGlu5a receptor [1]) | Ki (human mGlu5a receptor [2])
1 | CC(C)C1CC(=O)N(c2ccc(C#Cc3ccccc3)cn2)N1 (racemic) [Example 2, (RS)-5-Isopropyl-2-(5-phenylethynyl-pyridin-2-yl)-pyrazolidin-3-one] | 73% | 24 nM | 
2 | O=C1CC2CCCN2N1c1ccc(C#Cc2ccccc2)cn1 (racemic) [Example 10, (RS)-1-(5-Phenylethynyl-pyridin-2-yl)-tetrahydro-pyrrolo[1,2-b]pyrazol-2-one] | 73% | 35 nM | 
3 | O=C1CC2CCCN2N1c1ncc(C#Cc2ccccc2)cn1 (racemic) [Example 11, (RS)-1-(5-Phenylethynyl-pyrimidin-2-yl)-tetrahydro-pyrrolo[1,2-b]pyrazol-2-one] | 55% | 60 nM | 
4 | CC1(C)CC(=O)N(c2ccc(C#Cc3ccccc3)cn2)N1 [Example 1, 5,5-Dimethyl-2-(5-phenylethynyl-pyridin-2-yl)-pyrazolidin-3-one] | 60% | 7 nM | 
5 | CN1N(c2ccc(C#Cc3ccccc3)cn2)C(=O)CC1(C)C [Example 3, 1,5,5-Trimethyl-2-(5-phenylethynyl-pyridin-2-yl)-pyrazolidin-3-one] | 96% | 30 nM | 
6 | Cc1cccc(C#Cc2ccc(N3C(=O)CC(C)(C)N3C)nc2)c1 [Example 4, 1,5,5-Trimethyl-2-(5-m-tolylethynyl-pyridin-2-yl)-pyrazolidin-3-one] | 72% | 72 nM | 
7 | CC1(C)CC(=O)N(c2ccc(C#Cc3cccc(F)c3)cn2)N1 [Example 5, 2-[5-(3-Fluoro-phenylethynyl)-pyridin-2-yl]-5,5-dimethyl-pyrazolidin-3-one] | 31% | 13 nM | 
8 | CN1N(c2ccc(C#Cc3cccc(F)c3)cn2)C(=O)CC1(C)C [Example 6, 2-[5-(3-Fluoro-phenylethynyl)-pyridin-2-yl]-1,5,5-trimethyl-pyrazolidin-3-one] | 109% | 36 nM | 
9 | CN1N(c2ccc(C#Cc3cccc(Cl)c3)cn2)C(=O)CC1(C)C [Example 7, 2-[5-(3-Chloro-phenylethynyl)-pyridin-2-yl]-1,5,5-trimethyl-pyrazolidin-3-one] | 55% | 90 nM | 
10 | CC1(C)CC(=O)N(c2ccc(C#Cc3ccc(F)cc3)cn2)N1 [Example 8, 2-[5-(4-Fluoro-phenylethynyl)-pyridin-2-yl]-5,5-dimethyl-pyrazolidin-3-one] | 38% | 13 nM | 
11 | CC1(C)CC(=O)N(c2ncc(C#Cc3ccccc3)cn2)N1 [Example 9, 5,5-Dimethyl-2-(5-phenylethynyl-pyrimidin-2-yl)-pyrazolidin-3-one] | 39% | 46 nM | 

Second part, the molecule after the results:

Row | Emax (human mGlu5a receptor [1]) | EC50 (human mGlu5a receptor [1]) | Ki (human mGlu5a receptor [2]) | Structure (SMILES)
12 | 59% | 22 nM |  | O=C1CC2CCCN2N1c1ncc(C#Cc2cccc(F)c2)cn1 (racemic) [Example 12, (RS)-1-[5-(3-Fluoro-phenylethynyl)-pyrimidin-2-yl]-tetrahydro-pyrrolo[1,2-b]pyrazol-2-one]
13 | 58% | 41 nM |  | O=C1CC2CCCN2N1c1ncc(C#Cc2ccc(F)cc2)cn1 (racemic) [Example 13, (RS)-1-[5-(4-Fluoro-phenylethynyl)-pyrimidin-2-yl]-tetrahydro-pyrrolo[1,2-b]pyrazol-2-one]
14 | 46% | 106 nM |  | CCN1C(C(C)C)CC(=O)N1c1ccc(C#Cc2ccccc2)cn1 (racemic) [Example 23, (RS)-1-Ethyl-5-isopropyl-2-(5-phenylethynyl-pyridin-2-yl)-pyrazolidin-3-one]
15 | 92% | 71 nM |  | CC1(C(F)(F)F)CC(=O)N(c2ccc(C#Cc3ccccc3)cn2)N1 (racemic) [Example 24, (RS)-5-Methyl-2-(5-phenylethynyl-pyridin-2-yl)-5-trifluoromethyl-pyrazolidin-3-one]
16 | 66% | 33 nM |  | CN1N(c2ncc(C#Cc3ccccc3)cn2)C(=O)CC1(C)C [Example 14, 1,5,5-Trimethyl-2-(5-phenylethynyl-pyrimidin-2-yl)-pyrazolidin-3-one]
17 | 61% | 34 nM |  | CN1N(c2ncc(C#Cc3cccc(F)c3)cn2)C(=O)CC1(C)C [Example 15, 2-[5-(3-Fluoro-phenylethynyl)-pyrimidin-2-yl]-1,5,5-trimethyl-pyrazolidin-3-one]
18 | 69% | 56 nM |  | CN1N(c2ncc(C#Cc3ccc(F)cc3)cn2)C(=O)CC1(C)C [Example 16, 2-[5-(4-Fluoro-phenylethynyl)-pyrimidin-2-yl]-1,5,5-trimethyl-pyrazolidin-3-one]
19 | 47% | 35 nM |  | CN1N(c2ncc(C#Cc3cc(F)ccc3F)cn2)C(=O)CC1(C)C [Example 17, 2-[5-(2,5-Difluoro-phenylethynyl)-pyrimidin-2-yl]-1,5,5-trimethyl-pyrazolidin-3-one]
20 |  |  | 103 nM | CN1N(c2ccc(C#Cc3ccnc(Cl)c3)cn2)C(=O)CC1(C)C [Example 18, 2-[5-(2-Chloro-pyridin-4-ylethynyl)-pyridin-2-yl]-1,5,5-trimethyl-pyrazolidin-3-one]
21 | 86% | 86 nM |  | CC1(C)CC(=O)N(c2ccc(C#Cc3cc(F)ccc3F)nn2)N1 [Example 19, 2-[6-(2,5-Difluoro-phenylethynyl)-pyridazin-3-yl]-5,5-dimethyl-pyrazolidin-3-one]
22 |  |  | 69.7 nM | CC1(C)CC(=O)N(c2ccc(C#Cc3cc(F)ccc3F)cn2)N1 [Example 20, 2-[5-(2,5-Difluoro-phenylethynyl)-pyridin-2-yl]-5,5-dimethyl-pyrazolidin-3-one]
23 |  |  | 53.5 nM | CCN1N(c2ccc(C#Cc3ccccc3)cn2)C(=O)CC1(C)C [Example 21, 1-Ethyl-5,5-dimethyl-2-(5-phenylethynyl-pyridin-2-yl)-pyrazolidin-3-one]

From patent US8648088B2, “Ethynyl nitrogen containing heteroaryl pyrazolidin-3-one derivatives” (Hoffmann-La Roche Inc., priority 2011, dated 2014)
